Assay in all cases: DTP human tumour cell line panel, 48 h
In experiment [1] the test system is MOLT-4 leukemia.
The subject of experiment [2] is SF-539 CNS.
In experiment [3] the test system is SR leukemia.
Experiment [4] deals with UACC-257 melanoma.
The subject of experiment [5] is HCT-15 colon.
The test system of experiment [6] is MCF7 breast.
Experiment [7] deals with IGROV1 ovarian.
Experiment [8] concerns OVCAR-3 ovarian.
Experiment [9] has as its system RPMI-8226 leukemia.
For experiment [10], the system named is SK-MEL-2 melanoma.

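48-hour exposure; five concentrations; linearly interpolated endpoints. GI50 marks 50% less growth. TGI is the concentration that stops growth completely.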 Some results are limits rather than exact numbers.

As to `CC(ONC(=O)c1cc(C(F)(F)F)cc(C(F)(F)F)c1)C(=O)Nc1ccc(Cl)cc1` (stereo unspecified), the GI50 (as a rule, the concentration giving 50% growth inhibition) in experiment [1] was 2650 nM; in [2], 4820 nM; in [4] it was 3.83 µM; in experiment [5] it was 4.98 µM; in experiment [6], 3.38 µM; in experiment [7] it was 8860 nM. Also, the GI50 in experiment [8] is 4.25 µM; in [9] it was 2.27 µM; in experiment [10], 3.65 µM. The total growth inhibition concentration (TGI) (commonly the concentration at which net growth stops) stood at 22.3 µM in experiment [1]; 19 µM in experiment [2]; 1.16 µM in experiment [3]; 20.1 µM in [4]; 20 µM in [5]; 16.5 µM in experiment [6]. The TGI in experiment [7] was greater than 52 µM; in experiment [8] it was greater than 76.6 µM; in [9] it was 6.98 µM; in [10], 15.2 µM.
As to `CC1(C)N=C(N)N=C(N)N1c1ccc(F)c(C(F)(F)F)c1`, the GI50 in [1] is 727 nM; in experiment [2], 710 nM; in experiment [3], 0.444 µM; in [4], greater than 57.8 µM; in experiment [5], 1.58 µM; in experiment [6], 0.998 µM. Moreover, the GI50 in experiment [7] was 530 nM; in experiment [8], 5.62 µM; in experiment [9], 3.42 µM; in experiment [10], greater than 27.9 µM. Also, the total growth inhibition concentration (TGI) in experiment [1], in experiment [2], in experiment [3], in experiment [4], in [5] and in [6] was greater than 100 µM throughout. The TGI in experiment [7], in experiment [8], in experiment [9] and in experiment [10] was greater than 100 µM throughout.
Consider `COC(=O)c1ccccc1NC(=O)/C(=N\NC(C)(C)C)C(C#N)c1nc(-c2ccc([N+](=O)[O-])cc2)cs1` (stereo unspecified), for which the TGI in experiment [1], in experiment [2], in experiment [3], in experiment [4], in experiment [5] and in experiment [6] was greater than 100 µM throughout. Besides, the TGI in experiment [7], in experiment [8], in experiment [9] and in experiment [10] was greater than 100 µM throughout.
For the compound `CC(C)=CCc1c(O)cc(/C=C/c2cc(O)c3c(c2)C[C@@H]2C(C)(C)[C@H](O)[C@H](O)C[C@@]2(C)O3)cc1O`, the GI50 in experiment [1] is less than 1 nM; in experiment [2], 5.32 nM; in experiment [3], less than 0.001 µM; in experiment [4], 2.62 µM; in experiment [5] it was 1.28 µM; in experiment [6], 0.00718 µM. In addition, the GI50 was 1250 nM in experiment [7], 1.5 µM in experiment [8], less than 0.001 µM in experiment [9] and 0.0444 µM in experiment [10]. The TGI is 0.0148 µM in [1]; 2.2 µM in experiment [2]; greater than 10 µM in [3]; greater than 10 µM in [4]; greater than 10 µM in experiment [5]; 0.831 µM in [6]. The TGI in experiment [7] is greater than 10 µM; in experiment [8], 5.11 µM.
In the case of `CC(=O)/C=C/C1=C(c2cc3ccccc3s2)c2ccccc2CC1`, the GI50 was 13600 nM in experiment [1]; 27200 nM in [2]; 8.59 µM in [3]; 24.4 µM in experiment [4]; 21.8 µM in [5]; 5.27 µM in experiment [6]. In addition, the GI50 in [7] was 27400 nM; in experiment [8], 19.4 µM; in [9] it was 3.86 µM; in experiment [10], 20 µM. Moreover, the TGI is greater than 100 µM in [1]; 64.7 µM in [2]; greater than 100 µM in experiment [3]; 59.7 µM in experiment [4]; 67.3 µM in [5]; greater than 100 µM in experiment [6]. Also, the TGI in [7] was greater than 100 µM; in experiment [8] it was 45 µM; in experiment [9], 24.4 µM; in experiment [10], 42.2 µM.
With `COc1ccc(C(O)CNC(=O)c2ccccc2)cc1` (stereo unspecified), the total growth inhibition concentration (TGI) in [1], in experiment [2], in experiment [3], in [4], in experiment [5] and in experiment [6] was greater than 100 µM throughout. Besides, the concentration for total growth inhibition (TGI) in experiment [7], in [8], in [9] and in [10] was greater than 100 µM throughout.
For `COc1cccc(/C=N\Nc2ccc([N+](=O)[O-])cn2)c1O`, the GI50 in experiment [1] is 3430 nM; in [2], 2930 nM; in experiment [3], 3.03 µM; in [4], 3.19 µM; in experiment [6], 3.18 µM; in experiment [7], 1910 nM. For the same compound, the GI50 is 2.38 µM in [8], 3.21 µM in [9] and 9.69 µM in experiment [10]. For the same compound, the TGI in experiment [1] was 16.9 µM; in experiment [2] it was 8.65 µM; in [3], greater than 100 µM; in experiment [4] it was 20.6 µM; in experiment [5] it was 39.7 µM; in experiment [6], 71.1 µM. For the same compound, the TGI in [7] is 13.5 µM; in experiment [8], 12 µM; in experiment [9] it was 27.8 µM; in experiment [10], 54.4 µM.

The values are drawn from PubChem BioAssay (NCI).
